Test results published in patent US8916577B2, “Tricyclic derivatives, process for their preparation and their use as kinase inhibitors” (Nerviano Medical Sciences S.R.L., priority 2011, dated 2014).
Where a name gives a salt, the structure may show the parent alone.

Columns and labels:
MPS1 = MPS1 (Homo sapiens (Human), UniProt P33981); experiment: Biochemical assay for inhibitors of MPS1 kinase activity (33P-ATP trans-phosphorylation, Dowex); settings: 5 nM MPS1, 15 microM ATP, P38-β-tide 200 microM
Excerpt: Cloning, Expression and Purification of Recombinant MPS1 Full Length Protein.
MPS1 full length (corresponding to residues 2-857 of the full length sequence, see Swiss-Prot accession number P33981) was PCR amplified from the full-length human MPS1 gene present in house as clone pGEX4t_MPS1.
Baculoviruses were generated by cotransfecting Sf9 insect cells with the expression vector and the viral DNA using the BaculoGold® transfection kit (Pharmingen). Viral supernatant was recovered after 5 days and subjected to 3 rounds of amplification to increase viral titer. Recombinant protein was produced by infecting High5 insect cells. After 72 hours of infection at 21° C., cells were recovered, pelletted and freezed at −80° C. For purification of recombinant protein, pellet was thawed, resuspended in lysis buffer (PBS, NaCl 150 mM, Glycerol 10%, CHAPS 0.1%, DTT 20 mM, protease and phosphatase inhibitors) and lysed by Gaulin. Lysate was cleared by centrifugation and loaded on a GST affinity column. After extensive wash, recombinant protein was cleaved by a specific protease and eluted by incubation.
To get a fully activated enzyme, the protein was then subjected to auto-phosphorylation in presence of ATP 1 mM at 25° C. for 2 hours in kinase buffer (Hepes pH7.5 50 mM, MgCl2 2.5 mM, MnCl2 1 mM, DTT 1 mM, phosphatase inhibitors); ATP was then removed whit a desalting column.
Biochemical Assay for Inhibitors of MPS1 Kinase Activity
(§1) The inhibitory activity of putative kinase inhibitors and the potency of selected compounds were determined using a trans-phosphorylation assay.
(§2) Specific peptide or protein substrates are trans-phosphorylated by their specific ser-thr or tyr kinase in the presence of ATP traced with ^33P-γ-ATP, and in the presence of their own optimal buffer and cofactors.
(§3) At the end of the phosphorylation reaction, more than 98% unlabeled ATP and radioactive ATP is captured by an excess of the ion exchange dowex resin; the resin then settles down to the bottom of the reaction plate by gravity.
Supernatant is subsequently withdrawn and transferred into a counting plate, then evaluated by P-counting.
The buffer for MPS1 assay was composed of HEPES 50 mM, at pH 7.5, with 2.5 mM MgCl2, 1 mM MnCl2, 1 mM DTT, 3 microM Na3VO4, 2 mM P-glycerophosphate and 0.2 mg/mL BSA.
The assay was run with a final concentration MPS1 of 5 nM, in the presence of 15 microM ATP and 1.5 nM ^33P-γ-ATP; the substrate was P38-β-tide, used at 200 microM.
(§4) The test mix consisted of:
(§5) 1) 3× Enzyme mix (done in Kinase Buffer 3×), 5 microL/well
(§6) 2) 3× substrate and ATP mix (done in ddH2O), together with ^33P-γ-ATP, 5 microL/well
(§7) 3) 3× test compounds (diluted into ddH2O—3% DMSO)—5 microL/well
a) for percent inhibition studies (HTS), individual dilution plates at 1 mM are diluted at a 3× concentration (30 microM) in ddH2O (3% DMSO=final concentration) using a Beckman NX automated pipetting platform. The same instrument is used for distributing the diluted mother plates into the test plates. b) for IC50 determination (KSS platform), 100 μl of each compound at 1 mM in 100% DMSO are transferred from the original plate into the first column of another 96 well plate (A1 to G1); well H1 is left empty for the internal standard inhibitor, usually staurosporine.
An automated station for serial dilutions (Biomek FX, Beckman) is used for producing 1:3 dilutions in 100% DMSO, from line A1 to A10, and for all the seven compounds in the column. Moreover, 4-5 copies of daughter plates are prepared by reformatting 5 microL of this first set of 100% DMSO dilution plates into 384 deep well-plates: one copy of the daughter plates with the serial dilutions of test compounds will be thaw the day of the experiments, reconstituted at a 3× concentration with water and used in the IC50 determination assays. In a standard experiment, the highest concentration (3×) of all compounds is 30 microM, while the lowest one is 1.5 nM. […]

PIM-1 = PIM-1 (Homo sapiens (Human), UniProt P11309); experiment: Biochemical assay for inhibitors of PIM-1 kinase activity (33P-ATP trans-phosphorylation, Dowex); settings: 1 nM enzyme, 200 microM ATP, Aktide 25 microM
Method: Biochemical Assay for Inhibitors of PIM-1 Kinase Activity
as §1, §2, §3
Supernatant is subsequently withdrawn and transferred into a counting plate, then evaluated by (3-counting.
The buffer for PIM-1 assay was composed of HEPES 50 mM, at pH 7.5, with 10 mM MgCl2, 1 mM DTT, 3 microM NaVO3, and 0.2 mg/mL BSA
Full-length human PIM-1 was expressed and purified as described in Bullock A N, et al., J. Biol. Chem. 2005, 280, 41675-82.
1.7 microM PIM1 was incubated 1 hour RT at 28° C. in the presence of 125 microM ATP
ATP concentration: 200 microM
Enzyme concentration: 1 nM
Substrate concentration Aktide (Chemical Abstract Service Registry Number 324029-01-8): 25 microM
as §4, §5, §6, §7
For IC50 determination, test compounds are received as a 1 mM solution in 100% DMSO and distributed into 96-well plates: compounds are then plated into the first column of a new 96-well plate (A1 to G1), 100 microL/well.
An automated station (Biomek FX, Beckman) is used for serial dilutions, producing 1:3 dilutions in 100% DMSO, from line A1 to A10, for all the compounds in the column. […]
Data are analyzed by an internally customized version of the “Assay Explorer” SW package, which provides sigmoidal fitting of the ten-dilution curves for IC50 determination in secondary assay/hit confirmation routines.

PIM-2 = PIM-2 (Homo sapiens (Human), UniProt Q9P1W9); experiment: PIM-2 kinase inhibition assay: Dowex technique; format: biochemical; settings: 1.5 nM enzyme, 4 microM ATP, Aktide 5 microM
Method: Method for PIM-2 Kinase Inhibition Assay: Dowex Technique
The buffer for PIM-2 assay was composed of HEPES 50 mM, at pH 7.5, with 1 mM MgCl2, 1 mM DTT, 3 microM Na3VO4, and 0.2 mg/mL BSA
Full-length human PIM-2 was expressed and purified as described in Fedorov O, et al., PNAS 2007 104, 51, 20523-28.
Enzyme concentration=1.5 nM
Aktide substrate (Chemical Abstract Service Registry Number 324029-01-8)=5 microM
See above: same procedure as described for PIM-1.

Sequence of PIM-1 (P11309 whole entry): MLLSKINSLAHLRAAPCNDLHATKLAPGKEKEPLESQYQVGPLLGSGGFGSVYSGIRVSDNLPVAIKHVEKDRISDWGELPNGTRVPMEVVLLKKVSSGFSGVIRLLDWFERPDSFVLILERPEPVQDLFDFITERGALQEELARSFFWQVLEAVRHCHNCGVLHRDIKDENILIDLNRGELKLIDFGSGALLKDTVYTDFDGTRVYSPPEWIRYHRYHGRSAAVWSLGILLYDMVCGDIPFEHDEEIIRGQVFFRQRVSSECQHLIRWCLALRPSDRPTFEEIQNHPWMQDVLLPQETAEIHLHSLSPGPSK
Sequence of PIM-2 (Q9P1W9 whole entry): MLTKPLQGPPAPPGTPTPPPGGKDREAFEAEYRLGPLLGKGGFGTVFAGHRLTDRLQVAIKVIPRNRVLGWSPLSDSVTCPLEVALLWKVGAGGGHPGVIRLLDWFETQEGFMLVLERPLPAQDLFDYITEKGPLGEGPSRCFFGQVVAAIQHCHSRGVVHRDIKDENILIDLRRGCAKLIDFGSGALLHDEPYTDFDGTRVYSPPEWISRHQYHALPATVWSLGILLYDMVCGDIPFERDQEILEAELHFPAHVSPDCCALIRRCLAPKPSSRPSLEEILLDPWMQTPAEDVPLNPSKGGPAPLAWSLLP
Sequence of MPS1 (P33981 2-857): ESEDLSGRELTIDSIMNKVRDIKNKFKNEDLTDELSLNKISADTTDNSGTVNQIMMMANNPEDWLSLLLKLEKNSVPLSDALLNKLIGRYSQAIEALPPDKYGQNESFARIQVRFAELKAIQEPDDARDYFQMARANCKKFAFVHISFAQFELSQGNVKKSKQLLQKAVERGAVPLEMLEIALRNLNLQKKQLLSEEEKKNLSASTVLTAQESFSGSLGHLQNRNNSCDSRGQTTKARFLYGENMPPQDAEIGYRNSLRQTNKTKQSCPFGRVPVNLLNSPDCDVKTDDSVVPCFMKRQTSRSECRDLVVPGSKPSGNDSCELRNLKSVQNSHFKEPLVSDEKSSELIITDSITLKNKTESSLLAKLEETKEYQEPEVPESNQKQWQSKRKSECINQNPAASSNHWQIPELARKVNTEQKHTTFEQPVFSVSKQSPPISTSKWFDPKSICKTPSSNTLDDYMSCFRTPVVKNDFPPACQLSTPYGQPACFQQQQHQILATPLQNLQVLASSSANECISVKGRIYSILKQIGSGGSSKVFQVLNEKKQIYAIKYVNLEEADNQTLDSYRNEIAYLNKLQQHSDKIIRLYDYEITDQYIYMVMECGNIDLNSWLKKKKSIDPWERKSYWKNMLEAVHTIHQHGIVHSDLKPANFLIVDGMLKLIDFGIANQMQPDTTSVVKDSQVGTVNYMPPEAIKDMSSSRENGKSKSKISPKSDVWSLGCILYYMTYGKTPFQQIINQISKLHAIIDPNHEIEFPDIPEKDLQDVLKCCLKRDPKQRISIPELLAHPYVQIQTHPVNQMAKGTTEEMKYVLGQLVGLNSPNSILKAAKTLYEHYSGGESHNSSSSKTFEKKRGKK

| SMILES | IC50 (MPS1) [µM] | IC50 (PIM-1) [µM] | IC50 (PIM-2) [µM] |
| --- | --- | --- | --- |
| COc1cc(N2CCN(C)CC2)ccc1Nc1ncc2c(n1)-c1c(c(C(N)=O)nn1C)CCC2 [Compound 3, 9-{[2-methoxy-4-(4-methylpiperazin-1-yl)phenyl]amino}-1-methyl-1,4,5,6-tetrahydropyrazolo[4′,3′:6,7]cyclohepta[1,2-d]pyrimidine-3-carboxamide] | 0.194 | 1.32 | 5.91 |
| COc1cc(C(=O)NC2CCN(C)CC2)ccc1Nc1ncc2c(n1)-c1c(c(C(=O)N[C@H](CN)c3ccccc3)nn1C)CCC2 [Compound 5, N-[(1S)-2-amino-1-phenylethyl]-9-({2-methoxy-4-[(1-methylpiperidin-4-yl)carbamoyl]phenyl}amino)-1-methyl-1,4,5,6-tetrahydropyrazolo[4′,3′:6,7]cyclohepta[1,2-d]pyrimidine-3-carboxamide dihydrochloride] | 0.469 | 0.497 | 3.76 |
| CN1CCN(c2ccc(Nc3ncc4c(n3)-c3c(c(C(N)=O)nn3C)CCC4)cc2)CC1 [Compound 67, 1-methyl-9-{[4-(4-methylpiperazin-1-yl)phenyl]amino}-1,4,5,6-tetrahydropyrazolo[4′,3′:6,7]cyclohepta[1,2-d]pyrimidine-3-carboxamide trifluoroacetate] | 1.2 | 2.45 | 3.6 |
